# From patent US9688653B2, “Ethoxyphenyl thienyl compounds and methods for the treatment of bacterial infections” (Duke University, priority 2013, dated 2017)
# Assays:
# [1] = system: Bladder carcinoma 5637 cells; assay: Cytotoxicity counterscreen, CellTiter Glo, 72 hr; assay type: cell-based, human
# Experimental: B. Counterscreen: Cytotoxicity Screening for Potential Inhibitors of Bacterial Capsule Biogenesis.
# Purpose: This cell-based assay measures the cytotoxicity of compounds in bladder carcinoma 5637 cells using luminescent cell viability assay readout.
# Cytotoxicity assay: The cytotoxicity assay was performed as described in Section 6: Appendix. Hit cytotoxicity and the 50% toxic concentration (CC50) was determined and compared to the IC50 to calculate the selectivity index.
# Assay Description: Cytotoxicity: Dose response testing (dose range=300-0.58 μM) established the hit cytotoxicity data. Compounds were plated in 384-well microplates in a stacked dose response format using the same doses used in the efficacy dose response. Bladder carcinoma 5637 cells were added to the compounds, and 72 hr later cell viability was measured using CellTiter Glo (38). Hit cytotoxicity and the 50% toxic concentration (TC50) was determined and compared to the IC50 to calculate the therapeutic index. Test compounds are serially diluted in a plate to plate matrix or stacked plate matrix. All 320 compounds in a source plate are diluted together resulting in a 10 point dose response dilution series. It is visualized as a serial dilution series proceeding vertically through a stack of plates with the high dose plate on top and the low dose plate on the bottom.
# Control Drug: Hyamine was used as a positive cytotoxic control. All wells contained 0.5% DMSO.
# Preparation of Bladder carcinoma 5637 cells: Cells are harvested and resuspended to 80,000 cells per ml in Complete DMEM/F12®.
# Endpoint Read: Following the three day incubation period, the assay plates were equilibrated to room temperature for 30 min and an equal volume (30 μL) of Cell Titer-Glo® reagent (Promega Inc.) is added to each well using a WellMate™ (Matrix, Hudson, N.H.) and plates are incubated for an additional 10 min at room temperature. At the end of the incubation, luminescence is measured using a Perkin Elmer Envision™ multi-label reader (PerkinElmer, Wellesley, Mass.) with an integration time of 0.1 s.
# Cytotoxicity. Testing was performed essentially as previously described. Concentration-response testing was performed over a range 0.58-300 μM in a […] well plate format. Bladder carcinoma 5637 cells (ATCC HTB-9) were added to the compounds, and 72 hrs later cell viability was measured using CellTiter Glo (Promega). The 50% toxic concentration (TC50) was determined and compared to the IC50 to calculate the therapeutic index. Hyamine was used as a positive cytotoxic control. All wells contained 0.5% DMSO.
# E. coli K1 strain UTI89 [2] = assay: Secondary assay 2: T7 phage-mediated lysis assay; assay type: cell-based, Escherichia coli; conditions: read-out: T7 phage IC50
# From the text: D. Secondary Assay 2: Screening for Inhibitors of Bacterial Capsule Biogenesis—T7 Lysis Inhibition
# Purpose: This secondary assay measures the compound mechanistic specificity for inhibition of bacterial capsule formation and excludes inhibitors of phage replication using a different bacteriophage (T7). In this assay, an increase in phage-induced lysis correlates to a decrease in capsule formation.
# Purpose: This secondary assay measures the compound mechanistic specificity for inhibition of bacterial capsule formation using a different bacterial phage (T7). In this assay, an increase in phage-induced lysis correlates to a decrease in capsule formation.
# Assay Description: T7 phage-mediated lysis assay: This assay determined if the mechanism of action of the compound is inhibition of phage infectivity or replication. The T7 phage has a nearly identical genome to K1F, without encoding an endosialidase. Its cycle of replication is similar to that of K1F as well. However, T7 entry into E. coli is inhibited by K capsules. This secondary assay was conducted in the 96 well plate format. […] Compounds were added in quadruplicate to plates in a concentration dependent manner in the range of 100-0.39 μM, followed by addition of 100 μL of bacterial culture. 1% DMSO (final well concentration) was included. The plates were tape sealed and shaken vigorously for 1.5 hr. An initial OD600 reading was measured to identify compounds that cause growth retardation or bacterial killing in the absence of phage. Next, T7 phage (5 μL) was added to all of the test wells. The plates were resealed and shaken vigorously at 37° C., and measurements of OD600 for phage-mediated lysis were taken after 3 hr. True inhibitors of capsule yielded bacteria that were susceptible to T7 phage and lysed within 2 hr of the addition of phage. […] The positive control drug C7 (100 μM final well concentration) was used in this screen.
# T7 phage counter assay. This secondary assay was performed as previously described and was used to distinguish compounds with phage inhibitory effects from true polysaccharide capsule inhibitors. […] Thus, the presence of a capsule inhibits T7-mediated lysis. In this assay, an increase in phage-induced lysis correlates to a decrease in capsule formation. True inhibitors of capsule yielded bacteria that were susceptible to T7 phage and lysed within 2 hr of the addition of phage. […] The positive control molecule C7 (100 μM final well concentration) was used in this screen.
# E. coli K1 strain UTI89 [3] = assay: microbe, parasite or virus in culture
# From the text: The ability of the […] to bind to bacterial capsule, infect, and lyse E. coli UT189 was used as the primary assay to identify the effects of screened compounds on bacterial capsule formation. The phenotypic end-point assay measured the fluorescence generated by cellular processing of Alamar Blue as a direct indicator of cell viability. A total of […] compounds were screened using the primary assay. […] Hits were further evaluated using […] secondary assays for alternative measurement of compound-induced reduction in bacterial capsule formation (secondary assays 1 and 2) and specificity (secondary assays 3 and 4). Confirmed actives with an SI>5 were further investigated and subjected to chemical optimization, followed by secondary assay evaluation. Secondary assays more closely characterized the ability of the compounds to reduce bacterial capsule formation and can be used to examine the mechanism of action of the compounds. The combination of primary assay (to measure capsule reduction), counter assay (for general eukaryotic cell toxicity) and secondary assay (to measure reduction in capsule formation and specificity) were combined to allow a determination of probe efficacy, selectivity, and specificity.
# A. Primary Assay: Screening for Inhibitors of Bacterial Capsule Biogenesis.
# Primary assay: An end-point assay to measure the amount of K1 phage-induced bacterial cell lysis was employed to determine the compound effect on capsule biogenesis. K1 bacteriophage specifically binds the bacterial capsule during the initial stages of infection. Bacteria without capsule cannot be infected and lysed by the bacteriophage. […] A total of 338,740 compounds were screened at 100 μM in the primary screen Inhibition of phage lysis was calculated relative to the mean of the bacterial (positive) control on each microtiter plate. […] For calculation of S/B/Z value, and CV, the following formulae (in which SD stands for standard deviation) were used: S/B=mean signal/mean background; Z=1-3SD of sample+3SD of control mean of sample−mean of control; % CV=(SD mean signal/mean signal)×100.
# IC50 values were calculated using a 4 parameter Levenburg-Marquardt algorithm, with the maximum and minimum locked at 0 and 100 respectively.
# Primary assay: The primary assay was conducted in the 1,536 well plate format. Bacterial cultures of E. coli K1 strain UTI89 (cystitis isolate) and isogenic capsule mutant strains (as controls for phage infection) were grown and prepared at the screening center immediately prior to use. Overnight starting cultures of UTI89 were grown at 37° C., and inoculated into 1 liter of LB (starting OD600˜0.03), which was sufficient for screening 40 plates (including ˜10% waste) and ˜40,000 compounds as single points.
# Control wells contained UTI89 (wt K1) with 0.5% DMSO as a simulated positive control; UTI89 with 0.5% DMSO and tetracycline for a negative growth control; and media plus vehicle control. 50 mL of LB Broth was inoculated with stock 150 μL E. coli UT189 and grown overnight at 37° C. The next day, cultures were diluted 1:75 in 1 L of LB Broth containing 0.5% DMSO. 3 μL of this culture was added to each plate well, and plates were incubated, inverted, at 37° C. for 2 hr. The K1F bacteriophage stock was diluted 1:8 in LB Broth containing 0.5% DMSO, and 1.5 μL of diluted phage (or media only) was added to the pre-plated test compound wells and appropriate control wells. The plates were centrifuged briefly, and then were incubated, inverted, at 37° C. for an additional 2 hr. Afterward, Alamar Blue reagent (Invitrogen, #DAL1100) was diluted 1:2 with LB broth and 1 μL was added to each plate well.
# [4] = second round of synthetic analogues, n = 2
# [5] = read-out: K1 phage IC50, second round of synthetic analogues, n = 3
# [6] = first round of synthetic analogues, n = 2
# [7] = read-out: K1 phage IC50, first round of synthetic analogues, n = 3
# [8] = purchased analogue series, n = 2
# [9] = read-out: K1 phage IC50, purchased analogue series, n = 3
Structure (SMILES),IC50 [1] [µM],IC50 (E. coli K1 strain UTI89 [2]; [4]) [µM],IC50 (E. coli K1 strain UTI89 [3]; [5]) [µM],IC50 (E. coli K1 strain UTI89 [2]; [6]) [µM],IC50 (E. coli K1 strain UTI89 [3]; [7]) [µM],further results
O=C(Nc1cc(-c2ccc(OCCCC(F)(F)F)cc2)sc1C(=O)O)c1cc(Br)c(Br)o1 [compound 56643009],251,< 2.5,> 100,,,
O=C(Nc1cc(-c2ccc(OC(F)(F)F)cc2)sc1C(=O)O)c1cc2ccccc2o1 [compound 53495058],40.6,,,3.83,> 100,
CC(C)c1ccc(-c2cc(NC(=O)c3ccc(Br)o3)c(C(=O)O)s2)cc1 [compound 53470420],50.4,,,1.25,3.08,
CCCCOc1ccc(-c2cc(NC(=O)c3ccc(Br)o3)c(C(=O)O)s2)cc1 [CID 56643021],43.4,< 0.625,,,,IC50 (E. coli K1 strain UTI89 [3]; read-out: K1 phage IC50 (inhibition of K1 capsule formation)): 0.85 µM
O=C(Nc1cc(-c2ccc(OCCC(F)(F)F)cc2)sc1C(=O)O)c1ccc(Br)o1 [compound 56643022],41.7,< 0.625,0.84,,,
COc1ccc(-c2cc(NC(=O)c3cccc(F)c3)c(C(=O)O)s2)cc1 [compound 53470445],44.8,,,8.36,> 100,
O=C(Nc1cc(-c2ccc(OC(F)(F)F)cc2)sc1C(=O)O)c1cccc(F)c1 [compound 53495056],52.1,,,> 5,> 100,
O=C(O)c1sc(-c2ccc(OCCCC(F)(F)F)cc2)cc1NC(=O)c1c(F)cc(F)cc1F [compound 56643015],54.7,< 1.25,5.53,,,
Cc1c(C(=O)Nc2cc(-c3ccccc3)sc2C(=O)O)oc2ccccc12 [compound 17546661],48.7,,,,,IC50 (E. coli K1 strain UTI89 [2]; [8]): 33.3 µM; IC50 (E. coli K1 strain UTI89 [3]; [9]): > 100 µM
O=C(O)c1sc(-c2ccc(OCCCC(F)(F)F)cc2)cc1NC(=O)c1c(F)cccc1F [compound 56643024],241,< 2.5,10.3,,,
O=C(Nc1cc(-c2ccccc2)sc1C(=O)O)c1ccc(Cl)s1 [compound 17547200],71.5,,,,,IC50 (E. coli K1 strain UTI89 [2]; [8]): 15.1 µM; IC50 (E. coli K1 strain UTI89 [3]; [9]): > 100 µM
O=C(Nc1cc(-c2ccc(C(F)(F)F)cc2)sc1C(=O)O)c1ccc(Br)o1 [compound 53470416],47.5,,,2.59,12.3,
CCOc1ccc(-c2cc(NC(=O)c3c(F)cccc3C(F)(F)F)c(C(=O)O)s2)cc1 [compound 56643017],62,< 5,52.6,,,
Cc1ccc(C(=O)Nc2cc(-c3ccccc3)sc2C(=O)O)s1 [compound 17546665],63.6,,,,,IC50 (E. coli K1 strain UTI89 [2]; [8]): 29.7 µM; IC50 (E. coli K1 strain UTI89 [3]; [9]): > 100 µM
Cc1ccc(-c2cc(NC(=O)c3cc4ccccc4o3)c(C(=O)O)s2)cc1 [compound 53470436],94.6,,,20,> 100,
O=C(Nc1cc(-c2ccccc2)sc1C(=O)O)c1cccs1 [compound 9945365],62,,,,,IC50 (E. coli K1 strain UTI89 [2]; [8]): 6.9 µM; IC50 (E. coli K1 strain UTI89 [3]; [9]): 75.4 µM
CCOc1ccc(-c2cc(NC(=O)c3c(F)cc(F)cc3F)c(C(=O)O)s2)cc1 [compound 56643006],76.6,< 5,20,,,
CC(C)c1ccc(-c2cc(NC(=O)c3cccc(F)c3)c(C(=O)O)s2)cc1 [compound 53470444],37.6,,,2.81,24.8,
CCCCOc1ccc(-c2cc(NC(=O)c3cc(Br)c(Br)o3)c(C(=O)O)s2)cc1 [compound 56643019],31.7,1.25 to 2.5,23.3,,,
CCOc1ccc(-c2cc(NC(=O)c3ccc(OC)c(OC)c3)c(C(=O)O)s2)cc1 [compound 23602082],72.3,,,,,IC50 (E. coli K1 strain UTI89 [2]; [8]): 8 µM; IC50 (E. coli K1 strain UTI89 [3]; [9]): 57.9 µM
O=C(Nc1cc(-c2ccc(OCCC(F)(F)F)cc2)sc1C(=O)O)c1ccc(Br)o1 [CID 56643022],41.7,,,,,"IC50 (E. coli K1 strain UTI89 [2]; five probe analogues): < 0.625 µM; IC50 (E. coli K1 strain UTI89 [3]; read-out: K1 phage IC50, five probe analogues): 0.84 µM"
COc1ccc(-c2cc(NC(=O)c3ccc(Br)o3)c(C(=O)O)s2)cc1 [compound 53470446],50.5,,,1.24,11.1,
Cc1ccc(-c2cc(NC(=O)c3ccc(Br)s3)c(C(=O)O)s2)cc1 [compound 53470429],64,,,10.7,> 50,
CCCCOc1ccc(-c2cc(NC(=O)c3c(F)cccc3F)c(C(=O)O)s2)cc1 [compound 56643007],42.6,< 0.625,< 0.78,,,
CCCOc1ccc(-c2cc(NC(=O)c3c(F)cc(F)cc3F)c(C(=O)O)s2)cc1 [compound 56643023],85.6,< 0.625,8.06,,,
